Laboratory results reported in patent US11311520B2, “Substituted dihydroimidazopyridinediones as MKNK1 and MKNK2 inhibitors” (Bayer Pharma Aktiengesellschaft, priority 2017, dated 2022).
pIC50: −log10 of the molar value.

molecular target: human full-length MKNK1 (Homo sapiens (Human), UniProt Q9BUB5, T344D); test: MKNK1 kinase high ATP assay (TR-FRET); type: biochemical; conditions: 2 mM ATP, 15 min preincubation with enzyme, GST-MKNK1 (T344D)
In short: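 GST-tagged full-length human MKNK1 (1-424, T344D, baculovirus-expressed) preincubated 15 min at 22 °C with compound, then reacted 30 min at 22 °C with 2 mM ATP and 0.06 μM biotinylated peptide (final) in HEPES pH 7.5. Phospho-substrate by TR-FRET (665/622 nm ratio), normalised to no-inhibitor and no-enzyme controls.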

Chain of human full-length MKNK1 (Q9BUB5 other isoform, or with tags, fused parts or gaps T344D): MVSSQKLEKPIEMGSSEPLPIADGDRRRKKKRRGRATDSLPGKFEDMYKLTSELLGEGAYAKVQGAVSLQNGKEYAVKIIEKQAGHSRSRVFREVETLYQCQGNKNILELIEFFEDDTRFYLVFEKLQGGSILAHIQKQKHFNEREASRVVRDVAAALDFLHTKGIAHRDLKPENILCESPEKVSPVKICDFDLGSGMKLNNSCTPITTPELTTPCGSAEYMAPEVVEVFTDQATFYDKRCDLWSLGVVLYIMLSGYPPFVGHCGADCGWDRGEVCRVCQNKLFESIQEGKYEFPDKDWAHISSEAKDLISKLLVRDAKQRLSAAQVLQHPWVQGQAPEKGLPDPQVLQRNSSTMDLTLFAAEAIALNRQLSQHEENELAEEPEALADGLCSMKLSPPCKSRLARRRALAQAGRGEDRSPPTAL

| SMILES | pIC50 |
| --- | --- |
| Cc1cc(Nc2ncnc3ccc(F)cc23)c(=O)n2c1C(=O)N[C@]21CC[C@@](O)(C(F)(F)C(F)(F)F)CC1 [Example 192, (cis)-6′-[(6-fluoroquinazolin-4-yl)amino]-4-hydroxy-8′-methyl-4-(pentafluoroethyl)-2′H-spiro[cyclohexane-1,3′-imidazo[1,5-a]pyridine]-1′,5′-dione] | 6.55 |
| Cc1cc(Nc2ncnc3sccc23)c(=O)n2c1C(=O)N[C@]21CC[C@@](O)(C(F)(F)C(F)(F)F)CC1 [Example 193, (cis)-4-hydroxy-8′-methyl-4-(pentafluoroethyl)-6′-[(thieno[2,3-d]pyrimidin-4-yl)amino]-2′H-spiro[cyclohexane-1,3′-imidazo[1,5-a]pyridine]-1′,5′-dione] | 7.53 |
| Cc1cc(Nc2ncnc3[nH]ccc23)c(=O)n2c1C(=O)N[C@]21CC[C@@](O)(C(F)(F)C(F)(F)F)CC1 [Example 194, (cis)-4-hydroxy-8′-methyl-4-(pentafluoroethyl)-6′-[(7H-pyrrolo[2,3-d]pyrimidin-4-yl)amino]-2′H-spiro[cyclohexane-1,3′-imidazo[1,5-a]pyridine]-1′,5′-dione] | 7.91 |
| Cc1cc(Nc2ncnc3ccc(Cl)cc23)c(=O)n2c1C(=O)N[C@]21CC[C@@](O)(C(F)(F)C(F)(F)F)CC1 [Example 195, (cis)-6′-[(6-chloroquinazolin-4-yl)amino]-4-hydroxy-8′-methyl-4-(pentafluoroethyl)-2′H-spiro[cyclohexane-1,3′-imidazo[1,5-a]pyridine]-1′,5′-dione] | 6.47 |
| Cc1cc(Nc2ncnc3[nH]ccc23)c(=O)n2c1C(=O)NC21CCSCC1 [Example 196, 8-methyl-6-(7H-pyrrolo[2,3-d]pyrimidin-4-ylamino)-2′,3′,5′,6′-tetrahydro-2H-spiro[imidazo[1,5-a]pyridine-3,4′-thiopyran]-1,5-dione] | 9.30 |
| Cc1cc(Nc2ncnc3ccc(Cl)cc23)c(=O)n2c1C(=O)NC21CCSCC1 [Example 197, 6-[(6-chloroquinazolin-4-yl)amino]-8-methyl-2′,3′,5′,6′-tetrahydro-2H-spiro[imidazo[1,5-a]pyridine-3,4′-thiopyran]-1,5-dione] | 7.83 |
| Cc1cc(Nc2ncnc3[nH]ccc23)c(=O)n2c1C(=O)NC21CCS(=O)(=O)CC1 [Example 198, 8-methyl-6-(7H-pyrrolo[2,3-d]pyrimidin-4-ylamino)-2′,3′,5′,6′-tetrahydro-2H-spiro[imidazo[1,5-a]pyridine-3,4′-thiopyran]-1,5-dione 1′,1′-dioxide] | 8.96 |
| Cc1cc(Nc2ncnc3ccc(Cl)cc23)c(=O)n2c1C(=O)NC21CCS(=O)(=O)CC1 [Example 199, 6-[(6-chloroquinazolin-4-yl)amino]-8-methyl-2′,3′,5′,6′-tetrahydro-2H-spiro[imidazo[1,5-a]pyridine-3,4′-thiopyran]-1,5-dione 1′,1′-dioxide] | 7.25 |
